Reference: patent publication US20160089346A1, “METHOD OF TREATMENT FOR BODY CONTOURING” (Neothetics, Inc., priority 2014, published 2016)

Assays:
[1] = compared with albuterol, a short-acting hydrophilic beta-adrenergic agonist; cited from earlier work
[2] = system: non-obese adult subjects with central abdominal bulging; experiment: Phase 2 RESET trial: adverse effects and tolerability; type: in vivo, human; details: for Any Adverse Event Definitely or Possibly Related to Study Drug (incidence): 20 SC injections once a week for 8 weeks
Procedure: (§1) Methods: A randomized, double-blind, placebo-controlled study was conducted to evaluate the safety and efficacy of a composition comprising the long-acting beta-2 receptor agonist salmeterol xinafoate. This study was reviewed and approved by a central IRB (Chesapeake IRB, Columbia, Md.) and written informed consent was received from all study subjects. The study enrolled 513 adult subjects with central abdominal bulging at 31 investigative sites across the U.S. Subjects were required to be non-obese (BMI<30 kg/m^2), have a focal area of central abdominal bulging due to excess subcutaneous fat (˜400 cm^2 area around the umbilicus), have adequate skin elasticity, have at least a rating of “slight bulge, not flat” on both the 5-point Patient- and Clinician-Global Abdominal Perception Scales (P-GAPS and C-GAPS) at Screening and Day 1, and who were at least slightly dissatisfied with their abdominal bulging in the treatment area. The P-GAPS includes the ratings: flat, almost flat, slight bulge/not flat, […].
(§2) Subjects were randomized to receive 1 of 3 doses of salmeterol xinafoate (0.4, 1.0, or 4.0 μg total weekly dose) or placebo (0.9% Sodium Chloride Injection, USP) once a week for 8 weeks starting on Day 1 after all entry criteria had been satisfied. Randomization was based on a computer-generated, site-based randomization schedule, which was distributed to authorized, unblinded personnel at each site. Twenty, 1 mL weekly subcutaneous (SC) injections administered via a ½ inch 30 gauge needle were spaced 4 cm apart on the anterior abdomen between axial planes at +35 mm and −70 mm, relative to the umbilicus. Consistent injection placement was assured by the weekly application of a water-based temporary tattoo defining the location of the 20 administration injection sites. Efficacy endpoints included a Patient- and Clinician-Global Abdominal Perception Scale, a Patient and Clinician Photonumeric Scale (PPnS and CPnS) and duplicate abdominal circumference measurements (taken at +35 mm, 0 and −70 mm, relative to the umbilicus, using a standardized tape measurement (e.g., laser-guided) procedure).
Demographics & Safety Results: Subjects enrolled in the study were primarily female (81%; 418/513), white (86%; 440/513), with a mean age of 38 (18−71) years and a mean BMI of 23.4 (18.2−29.9) kg/m^2. […] Ninety-two percent completed the study per protocol; 6 subjects (1%) were lost to follow-up, 4 subjects (<1%) were terminated for protocol violation, 10 subjects (2%) withdrew consent and 21 subjects (4%) withdrew for miscellaneous causes. […] The most frequently reported treatment-emergent adverse effects related to study drug were mild and transient injection site events, including hematoma, erythema, contusion, and pain. The incidence of these adverse effects is reported in Table 1 (a single incidence (<1%) of an adverse event was reported randomly across organ systems and all treatment groups and is not reported in the table). These injection site events occurred with a similar frequency in subjects in the placebo group and in the salmeterol xinafoate groups and were considered to be related to the typical mechanical trauma of an injection procedure rather than the study drug itself.

[3] = system: central abdominal bulging due to excess subcutaneous fat; experiment: Phase 2 RESET trial: abdominal circumference by laser-guided tape measure, and calculated abdominal volume; type: in vivo, human; details: 0.4 μg total weekly dose
Procedure: as §1, §2
A specific set of standardized instructions (e.g., patient positioning, posture, breathing, etc.) were followed for the collection of all ratings and measurements. Designated clinical site personnel were trained in person to perform each procedure; some procedures also included a training video. […] Specific to the laser-guided tape measure procedure, the reproducibility of the procedure beyond what is obtained with a standard manual tape measure was enhanced with the water-based tattoo on the anterior abdomen, a self-tensioning tape measure, a tripod-mounted laser level and electronic data capture to ensure the independent recording of circumferential measurements. Both the 5-point patient and clinician verbal scales (P-GAPS and C-GAPS) that assigned scores ranging from flat to big (or pronounced) bulge, as well as the 6-point patient and clinician photonumeric scales (PPnS and CPnS) that are a match-to-sample task in which an abdominal profile are selected from a series of 6 identical torsos with a progressively larger anterior abdominal bulge were specifically developed and validated to assess treatment effects in non-obese subjects with central abdominal bulging. Neither patients nor clinicians had access to the others' scale ratings and neither had access to previous scale scores. Final assessments on all outcome measures were performed 1 week after the last injections (Day 57±2 days).
All efficacy analyses used a repeated measures analysis of covariance (ANCOVA) model to determine differences between each active treatment group and placebo. […]

[4] = system: central abdominal bulging due to excess subcutaneous fat; experiment: Phase 2 RESET trial: patient and clinician rating scales (P-GAPS, C-GAPS, PPnS, CPnS), composite responders; type: in vivo, human; details: 0.4 μg total weekly dose
Procedure: as §1, §2
A specific set of standardized instructions (e.g., patient positioning, posture, breathing, etc.) were followed for the collection of all ratings and measurements. Designated clinical site personnel were trained in person to perform each procedure; some procedures also included a training video. […] Specific to the laser-guided tape measure procedure, the reproducibility of the procedure beyond what is obtained with a standard manual tape measure was enhanced with the water-based tattoo on the anterior abdomen, a self-tensioning tape measure, a tripod-mounted laser level and electronic data capture to ensure the independent recording of circumferential measurements. […]

[5] = subjects weight neutral or lost weight (≦0 kg)

OCc1cc(C(O)CNCCCCCCOCCCCc2ccccc2)ccc1O (stereo not shown) [salmeterol]
Lipophilicity relative to albuterol [1]: at least 10,000 times

OCc1cc(C(O)CNCCCCCCOCCCCc2ccccc2)ccc1O (stereo not shown) [salmeterol xinafoate]
Injection Site Erythema (incidence) ([2]; 0.4 μg total weekly dose): 2%
Injection Site Hematoma (incidence) ([2]; 0.4 μg total weekly dose): 5%
Injection Site Hemorrhage (incidence) ([2]; 0.4 μg total weekly dose): 0%
Injection Site Pain (incidence) ([2]; 0.4 μg total weekly dose): 3%
Any Adverse Event Definitely or Possibly Related to Study Drug (incidence) ([2]; 0.4 μg total weekly dose): 11%
Injection Site Erythema (incidence) ([2]; 1.0 μg total weekly dose): 2%
Injection Site Hematoma (incidence) ([2]; 1.0 μg total weekly dose): 6%
Injection Site Hemorrhage (incidence) ([2]; 1.0 μg total weekly dose): 0%
Injection Site Pain (incidence) ([2]; 1.0 μg total weekly dose): 2%
Any Adverse Event Definitely or Possibly Related to Study Drug (incidence) ([2]; 1.0 μg total weekly dose): 12%
Injection Site Erythema (incidence) ([2]; 4.0 μg total weekly dose): 0%
Injection Site Hematoma (incidence) ([2]; 4.0 μg total weekly dose): 6%
Injection Site Hemorrhage (incidence) ([2]; 4.0 μg total weekly dose): 0%
Injection Site Pain (incidence) ([2]; 4.0 μg total weekly dose): 2%
Any Adverse Event Definitely or Possibly Related to Study Drug (incidence) ([2]; 4.0 μg total weekly dose): 12%
Tolerability ([2]; 0.4, 1.0 and 4.0 μg total weekly dose, 20 SC injections into abdominal adipose tissue once a week for 8 weeks): well tolerated
Significant adverse events during the study ([2]; all dose groups, 8 weeks): no significant adverse events
Change in abdominal volume from baseline ([3]; Day 57, all subjects, +35 mm to −70 mm relative to the umbilicus, placebo −90 mL, p=0.001): -192 mL
Mean change in abdominal circumference at the umbilicus from baseline ([3]; Day 57, all subjects, placebo −0.7 cm, p=0.001): −1.6 cm
Mean reduction in abdominal volume relative to placebo ([3]; all subjects): -102 mL
Mean reduction in umbilical circumference relative to placebo ([3]; all subjects): −0.9 cm
Mean reduction in abdominal volume from baseline [3, 5]: -329 mL
Mean reduction in abdominal volume relative to placebo [3, 5]: -175 mL
Mean reduction in umbilical circumference from baseline [3, 5]: −2.7 cm
Mean reduction in umbilical circumference relative to placebo [3, 5]: −1.6 cm
Dose comparison of efficacy across most outcome measures ([3]; lowest dose, 0.02 μg/mL): the most efficacious
Change from baseline across all rating instruments (P-GAPS, C-GAPS, PPnS, CPnS) [4]: consistent mean reductions from baseline
Composite responders (2-point improvement on P-GAPS and 2-point improvement on CPnS) compared to placebo [4]: significantly more responders
% composite responders (1-point improvement on P-GAPS and 2-point improvement on CPnS) ([4]; all subjects): 16%
% composite responders (1-point improvement on P-GAPS and 2-point improvement on CPnS) [4, 5]: 22%
